Where two headings read alike, the source gives them in different places.
Key:
[1] = in vitro; cited from earlier work
[2] = in vivo; cited from earlier work
[3] = test system: white blood cell production; details: cited from earlier work
[4] = test system: hematopoietic progenitor cells; details: normal human peripheral blood; cited from earlier work
[5] = ezatiostat hydrochloride in a liposomal injectable formulation, MDS patients; cited from earlier work
[6] = test system: HL-60 promyelocytic leukemia cells; details: in vitro; cited from earlier work
[7] = Stability of the amorphous form by visual inspection after storage; assay type: physicochemical
Description: The stability of the amorphous form was evaluated by visual inspection of a sample of the amorphous form prepared above after being stored at about 0-5° C. for about 8 months.

In the case of CCOC(=O)[C@@H](N)CCC(=O)N[C@@H](CSCc1ccccc1)C(=O)N[C@@H](C(=O)OCC)c1ccccc1 [Ezatiostat], the “potentiation of the activity of cytotoxic agents” value [1] is given as “potentiate the activity of cytotoxic agents”, the “potentiation of the activity of cytotoxic agents” value [2] is given as “potentiate the activity of cytotoxic agents” and the “white blood cell production” value ([3]; animals in which white blood cells were depleted by treatment with cisplatin or fluorouracil) is given as “increase white blood cell production”. The “white blood cell production” value ([3]; normal animals) was “increase white blood cell production”, the “colony formation of hematopoietic progenitor cells” value [4] was “stimulate colony formation of all three lineages” and the hematologic improvement [5] was “multi-lineage hematologic improvement”. The tolerability [5] was “well tolerated” and the “differentiation of HL-60 promyelocytic leukemia cells” value [6] was “induce the differentiation”.

With CCOC(=O)[C@@H](N)CCC(=O)N[C@@H](CSCc1ccccc1)C(=O)N[C@@H](C(=O)OCC)c1ccccc1.Cl [amorphous form, ezatiostat hydrochloride] the “visual inspection (color, texture, flowability, crystal formation)” value ([7]; stored at about 0-5° C. for about 8 months) was “No change with respect to color, texture and flowability of the sample and no crystal formation was observed” and the “time for which the amorphous form is stable” value ([7]; under 0-5° C.) was “at least 8 months”.
